Test results as given in patent US12304881B2, “Trientine tetrahydrochloride and a method of preparation and a pharmaceutical composition thereof” (Yu-Jet Co., Ltd., priority 2022, dated 2025).
Structures can show the parent of a compound that is named as a salt.

Assays:
[1] = as disclosed in CN102924289B; cited from earlier work

Structure (SMILES)	stability, compared between hydrochloride salts [1]	stability (impurity by TLC) in words
NCCNCCNCCN [TETA·2HCl, trientine dihydrochloride]	worse than that of TETA·4HCl	–
NCCNCCNCCN [TETA·4HCl Form N, trientine tetrahydrochloride]	–	good enough
